These results are taken from patent publication US20180118721A1, “PYRIMIDINE DERIVATIVES” (Merck Patent GmbH, priority 2015, published 2018).

Series [1] has as its target T1, purified human recombinant MTH1 (human MTH1, residues 42-197) (Homo sapiens, UniProt P36639).
T1 construct: human MTH1, residues 42-197, Uniprot-ID: P36639, expressed in E. coli; made in house; host or cells: E. coli
The series can be described thus: MTH1 enzymatic assay (luminescence-based, PPiLight). Type of series: biochemical.

Series [2] in a line: Shake flask solubility measurement. Type of series: physicochemical. To be noted: aqueous buffer, thermodynamic from solid, phosphate buffer pH 7.4, 37° C. How it is done:
Compound solubility in aqueous solution is determined by a standard method in the art, the shake flask method. Solubility measurement is performed under equilibrium conditions at pH 7.4. Samples are prepared by dissolving an excess of the test compound in a phosphate buffer (made up of 3,954 g sodium hydrogenphosphate-monohydrate, 6,024 g sodium chloride, 950 ml ultrapure water and adjusted to pH 7.4 with 0.1 M NaOH or 0.1 M HCl). These samples are shaken at 37° C. with 450 rpm (shaker: TiMix control Bühler) for 24 h in total until equilibrium is reached. After 7 hours shaking, the pH value of the sample is controlled and adjusted, if necessary. It is also checked that the sample (test compound) is available in excess. Shortly before the end of 24 h, samples are checked again for pH and precipitate. At the end of 24 h and after separation of the solid by filtration, the concentration of the compound in the filtrate is determined by liquid chromatography using […] (LC-UV).
Sample preparation: Incubation hood: TH 15 Bühler; pH device 766 Calimatic Knick; pH electrode InLab 423 Mettler
Chromatography Conditions:
Column: Chromolith RP18e 100×3 mm
Wavelength range: 190-400 nm • select a suitable evaluation wavelength
Injection volume: Probe 5 μl and 15 μl; Standard 5 μl
Column stove temperature: 37° C.
Eluent A: water/formic acid (999:1; v/v)
Eluent B: acetonitrile/formic acid (999:1; v/v)

A short description of series [3]: Microsomal stability (intrinsic clearance), human. Type of series: in vitro ADME. The note with it: human liver microsomes, 0.5 mg/ml protein, Clint. From the text: (§1) A microsomal stability assay is used to measure in vitro clearance (Clint). The assay involves measuring the rate of disappearance of a compound due to its intrinsic attitude to be metabolized (“intrinsic” meaning that the disappearance is not affected by other properties like permeability, binding etc. that play a role when quantifying in vivo clearance). The microsomal stability (intrinsic clearance, Clint) and thus metabolic stability is generally given as μl/min/mg protein. It can be visualized as the volume of solution that 1 mg of microsomes is able to clear of the compound in one minute.
(§2) A Tecan Genesis workstation (RSP 150/8) was used for to perform the microsomal incubations. Analysis was carried out using a Waters ACQUITY UPLC system coupled to an ABSciex API3000 mass spectrometer. Data analysis was performed using Assay Explorer (Symyx).
(§3) Column: Acquity UPLC BEH C18, 2.1×50 mm, 1.7 μm (Waters) Mobile phases: A=0.1% formic acid in water; B=acetonitrile
(§4) Flow rate: 0.750 mL/min; Detection: ESI, MRM; Injection: 10 μL; Column temperature: 50° C.
(§5) • Potassium phosphate buffer: 0.05 M potassium phosphate buffer pH 7.4 containing 1 mM MgCl2 • NADPH (nicotinamide adenine dinucleotide phosphate): 22.5 mg NADPH-Na4 in 1.8 ml potassium phosphate buffer • Acetonitrile: 50 Vol % acetonitrile (1 volume acetonitrile, 1 volume water) • DMSO: 20 Vol % DMSO in water • Stock solution of 20 mg/ml human or mouse liver microsomes (protein)/ml in phosphate buffer • Stock solution of 10 mM compound in 100% DMSO
(§6) Dilution of test compounds was done in 2 steps starting from a 10 mM stock solution of the respective compound in 100% DMSO. First 4 μl stock solution was added to 196 μl of 20 Vol % DMSO. In a second step, 10 μl of the first dilution were added to 1590 μl potassium phosphate buffer to achieve a final concentration of 1.25 μM in the final compound dilution. Thus, the amount of organic solvent in the assay was kept to a minimum (<1%).
(§7) The human or mouse liver microsome (protein) solution to be used in the assay was prepared by mixing 750 μl stock solution (20 mg/ml) and 2250 μl potassium phosphate buffer to a final concentration of 5 mg/ml.
(§8) Incubation was carried out on a 96 deep well incubation plate. 160 μl per well of the final compound dilution were transferred onto the incubation plate. Four samples of each compound dilution were assayed. 20 μl/well liver microsome solution was added to each well and the samples were then preincubated for 5 min at 37° C. and 800 rpm agitation. Two reference compounds (verapamil and dextromethorphan) were used in parallel in every experiment and for each species (human or mouse microsomes) to ensure system performance and for comparison.
(§9) On a separate stop plate, 160 μl acetonitrile were added per well.
(§10) After preincubation, i.e. at time t1=0 minutes, 18 μl samples of incubated compound solution and were transferred and added per well (containing acetonitrile) on the stop plate to prevent a reaction (0 minutes control samples, 4 samples per compound). Equally, 18 μl samples of incubated reference compound solution were transferred and added per well (containing acetonitrile) on the stop plate at time t1=0 minutes and again after 30 minutes (t4), solubility and chemical stability of the compound were checked. […]
Background: Liver microsomes are a subcellular fraction often used to study metabolism.

Series [4] is described as follows: Microsomal stability (intrinsic clearance), mouse. Format: in vitro ADME. To be noted: mouse liver microsomes, 0.5 mg/ml protein, Clint.
From the text: as §1, §2, §3, §4, §5, §6, §7, §8, §9, §10

Series [5] concerns the target T2, humanMTH1 (aminoacids 42 to 197) (Homo sapiens, UniProt P36639).
T2 construct: humanMTH1 (aminoacids 42 to 197); His tag at the N-terminus; purchased Abnova ab99390; host or cells: E. coli
The series can be described thus: Binding affinities and kinetics on MTH1 surfaces by surface plasmon resonance (SPR). To be noted: for residence time: on MTH1, calculated on the basis of the KD values; for Kd: SPR, Biacore4000, 25° C., Table 1, grouped, read-out: KD IC50. As to the method:
The SPR experiments were performed using a Biacore4000 instrument. […] HumanMTH1 was immobilized on Biacore CM5 chips at 25° C. and a flow rate of 10 μL/min using amine coupling at pH 5.5 and in presence of 1 μM MSC2567771B-1 according to Biacore's standard protocol. MTH1 was applied at a concentration of 10 μg/mL and depending on the duration of the injection time immobilization levels between 500 and 2,000 RU were obtained. Sample compounds were applied in form of titration series with a doubling of concentration at each subsequent injection. In general, 10 concentrations were injected covering a dilution range of 500 fold. Before and after each of these titration series the binding capability of the surface was controlled by the injection of the positive control S-Crizotinib at a fixed concentration of 2 μM. Kinetic titration experiments were performed at 25° C. with a flow rate of 30 μL/min, a sample contact time of 90 sec and a dissociation time of 420 sec in running buffer (20 mM Tris-HCl (Tris(hydroxymethyl)-aminomethane HCl) pH 7.40, 150 mM NaCl, 5 mM MgCl2, 1 mM DTT (dithiothreitol), 0.1 mM EGTA (ethylene glycol tetraacetic acid), 0.05% Tween 20) containing 2% DMSO (dimethyl sulfoxide). Buffer injections identical to the sample injections were executed at the beginning of the successive series for the purpose of double referencing. Solvent correction cycles (eight correction points, 1.4%-2.8% DMSO) were run at the same intervals. For surface conditioning ten start-up cycles (buffer injections) were run. Data points were collected at a sample rate of 10 Hz.
Data sets were processed and analyzed using the software Biacore4000 Evaluation, version 1.0. Solvent corrected and double-referenced association and dissociation phase data were fitted to a simple 1:1 interaction model with mass transport limitations.
Measured values are indicated as KD IC50 in the Table below.

The mark [6] stands for this setting: 6 μM 8-oxo-dGTP, Table 1, grouped.

Read-outs that look alike come from different tables or passages of the source.

The IC50 is the concentration that gives 50% inhibition. The term solubility denotes the concentration that dissolves in the medium under given conditions. Lower therefore signals a poorly soluble substance. Turning to `CNc1cc(N2CCC(F)(F)C2)nc(N)n1` [Example 3, 6-(3,3-difluoro-pyrrolidin-1-yl)-N^4-methyl-pyrimidine-2,4-diamine], the IC50 in series [1] (setting [6]) and in series [1] (Table 2) was below 1 nM throughout. Also, the solubility at 24 h in series [2] was above 1000 µg/mL. In series [3], the Microsomal stability human is reported as below 10 μl/min/mg prot. The Microsomal stability mouse in series [4] was 43 μl/min/mg prot.
For `NC(=O)C1CCN(c2cc(NC3CC3)nc(N)n2)C1` (centres unmarked) [Example 5, 1-(2-amino-6-cyclopropylamino-pyrimidin-4-yl)-pyrrolidine-3-carboxylic acid amide-formate], the IC50 was 1 to 100 nM in series [1] (setting [6]) and 7 nM in series [1] (Table 2). In series [2], this molecule gave a solubility at 24 h above 1000 µg/mL. The Microsomal stability human in series [3] is below 10 μl/min/mg prot. Moreover, the Microsomal stability mouse in series [4] was determined as 13 μl/min/mg prot.
Regarding `CNc1cc(N2CCC(O)C2)nc(N)n1` (centres unmarked) [Example 7, 1-(2-amino-6-methylamino-pyrimidin-4-yl)-pyrrolidin-3-ol-formate], the values for the IC50 in series [1] (setting [6]) and in series [1] (Table 2) were 1 to 100 nM and 1.3 nM, respectively. The molecule also had a solubility at 24 h in series [2] above 1000 µg/mL. Further, the Microsomal stability human in series [3] is below 10 μl/min/mg prot. Besides, the Microsomal stability mouse in series [4] was below 10 μl/min/mg prot.
For `CNc1cc(N2CCC[C@@H]2CO)nc(N)n1` [Example 8, [(R)-1-(2-amino-6-methylamino-pyrimidin-4-yl)-pyrrolidin-2-yl]-methanol-formate], the half-maximal inhibitory concentration (IC50) was 1 to 100 nM in series [1] (setting [6]) and 2 nM in series [1] (Table 2). Also, the solubility at 24 h in series [2] is above 1000 µg/mL. In addition, the Microsomal stability human in series [3] was below 10 μl/min/mg prot. In series [4], the Microsomal stability mouse is listed as below 10 μl/min/mg prot.
As usually defined, the residence time is the mean lifetime of the complex, commonly the reciprocal of the off-rate. For the molecule `CNc1cc(N2CC(C(=O)NCCc3ccc(S(=O)(=O)F)cc3)C2)nc(N)n1` [Example 108, 4-(2-{[1-(2-Amino-6-methylamino-pyrimidin-4-yl)-azetidine-3-carbonyl]-amino}-ethyl)-benzenesulfonyl fluoride], the IC50 in series [1] (setting [6]) was below 1 nM. Besides, the residence time in series [5] was at least 10 min.
As usually defined, the Kd is the equilibrium constant for the complex coming apart. As to `CNc1cc(N2CCCC2Cc2cccc(C)c2)nc(N)n1` (centres unmarked) [Example 112, N4-Methyl-6-[2-(3-methyl-benzyl)-pyrrolidin-1-yl]-pyrimidine-2,4-diamine], the IC50 in series [1] (setting [6]) is below 1 nM. Moreover, the Kd in series [5] fell in the range of 1 to 100 nM.
In the case of `C=CC(=O)Nc1ccc(CCNC(=O)C2CCN(c3cc(NC)nc(N)n3)CC2)cc1` [Example 113, 1-(2-Amino-6-methylamino-pyrimidin-4-yl)-piperidine-4-carboxylic acid [2-(4-acryloylamino-phenyl)-ethyl]-amide], the concentration for half-maximal inhibition (IC50) in series [1] (setting [6]) fell in the range of 1 to 100 nM. Also, the dissociation constant Kd in series [5] was 1 to 100 nM.
On to `CNc1cc(N2C(=O)CCC2Cc2ccccc2)nc(N)n1` (centres unmarked) [Example 114, 1-(2-Amino-6-methylamino-pyrimidin-4-yl)-5-benzyl-pyrrolidin-2-one], for which the IC50 in series [1] (setting [6]) was 1 to 100 nM. For the same molecule, the Kd in series [5] fell in the range of 1 to 100 nM.
With `CNc1cc(N2CC(Cc3ccccc3)CC2=O)nc(N)n1` (centres unmarked) [Example 115, 1-(2-Amino-6-methylamino-pyrimidin-4-yl)-4-benzyl-pyrrolidin-2-one], the 50% inhibitory concentration (IC50) in series [1] (setting [6]) was 1 to 100 nM. Moreover, in series [5], the Kd lay in the range of 1 to 100 nM.
As to `CNc1cc(N2CCCC[C@@H]2Cc2ccc(OC)cc2)nc(N)n1` [Example 116, 6-[(R)-2-(4-Methoxy-benzyl)-piperidin-1-yl]-N4-methyl-pyrimidine-2,4-diamine], the IC50 in series [1] (setting [6]) was below 1 nM. For the same molecule, the residence time in series [5] (read-out: Residence time) was at least 10 min.
In the case of `CNc1cc(N2CCCC[C@H]2Cc2ccc(OC)cc2)nc(N)n1` [Example 117, 6-[(S)-2-(4-Methoxy-benzyl)-piperidin-1-yl]-N4-methyl-pyrimidine-2,4-diamine], the IC50 in series [1] (setting [6]) was below 1 nM. In series [5], the Kd is below 1 nM.
Regarding `C=CC(=O)Nc1ccc(CCNC(=O)C2CN(c3cc(NC)nc(N)n3)C2)cc1` [Example 118, 1-(2-Amino-6-methylamino-pyrimidin-4-yl)-azetidine-3-carboxylic acid [2-(4-acryloylamino-phenyl)-ethyl]-amide], in series [1] (setting [6]), the IC50 lay within 1 to 100 nM. Further, in series [5], the dissociation constant Kd lay in the range of 1 to 100 nM.
With `CNc1cc(N2CCC(C(=O)NCCc3ccc(S(=O)(=O)F)cc3)CC2)nc(N)n1` [Example 120, 4-(2-{[1-(2-Amino-6-methylamino-pyrimidin-4-yl)-piperidine-4-carbonyl]-amino}-ethyl)-benzenesulfonyl fluoride], the half-inhibitory concentration (IC50) in series [1] (setting [6]) was below 1 nM. Moreover, in series [5], the residence time is at least 10 min.
